Earlier results as cited in patent publication US20070110715A1, “Treatment of alzheimer's disease” (Ares Trading S.A., priority 2003, published 2007).

Tested on: Alzheimer's disease risk
Settings: postmenopausal women using hormone replacement

For estrogen, the “reduction in disease risk (AD)” value is listed as roughly 50%.
